In patent publication US8734788B2, “Composition and method for treatment of reperfusion injury and tissue damage” (OPSONA Therapeutics Ltd, priority 2007, dated 2014):
pIC50: −log10 of the molar value. “Also recorded” adds a separate entry of the source.

What was measured:
[1] = test system: myocardial ischemia/reperfusion (I/R) injury in C57BL6 mice; test: Infarct size after myocardial ischemia/reperfusion in mice (Evans blue/TTC staining); format: in vivo; details: for effect on infarct size (in words): administered 5 minutes prior to reperfusion, versus saline/PBS
Method: Male C57BL6 mice (8-12 weeks old, 25-30 grams of weight) underwent 30 minutes of ischemia followed by 24 hours of reperfusion.
Experimental compounds were administered 5 minutes prior to reperfusion via the tail vein. […] OPN-301 (OPN301) is a murine IgG1 anti-TLR2 antibody (mouse Toll-like Receptor 2 (TLR2) antibody, clone T2.5, HyCult Biotechnology b.v., Cell Sciences, Canton, USA: catalogue number 1054).
Mice were anesthetized with a mixture of […]™ (N-(1-phenethyl-4-piperidyl)-N-phenyl-propanamide) 0.05 mg/kg, DORMICUM™ (Midazolum, 8-chloro-6-(2-fluorophenyl)-1-methyl-4H-imidazo[1,5-a][1,4]benzodiazepine) 5 mg/kg and DOMITOR™ (medetomidine hydrochlorine) 0.5 mg/kg (intraperitoneal injection). Atropine ((8-methyl-8-azabicyclo[3.2.1]oct-3-yl) 3-hydroxy-2-phenylpropanoate) 0.05 mg/kg was subcutaneously administered before coronary ligation. Core body temperature was maintained between 36° C. and 37.5° C. during surgery by continuous monitoring with a rectal thermometer and automatic heating blanket. Mice were […] and ventilated (Harvard Apparatus Inc.) with 100% oxygen. The left anterior descending (LAD) coronary artery was ligated using an 8-0 vicryl suture with a section of polyethylene-10 tubing placed over the LAD.
Ischemia was confirmed by bleaching of the myocardium. Reperfusion was initiated by releasing the ligature and removing the polyethylene-10 tubing. Reperfusion of the endangered myocardium is characterized by typical hyperaemia in the first few minutes. A piece of the loosened suture was left in place in order to determine ischemic area. The chest wall was closed and the animals received subcutaneously […]™ (atipamezole hydrochloride, a sedation reversal agent for DOMITOR™ (medetomidine hydrochlorine)) 2.5 mg/kg, ANEXATE™ (Flumazenil (also known as flumazepil)) 0.5 mg/kg and […]™ (buprenorphine) 0.1 mg/kg.
Infarct Size (IS) is expressed as a percentage of the Area-At-Risk (AAR) and total Left Ventricle (LV). The ratio of AAR/LV is a measure for the extent of myocardial tissue that underwent ischemia and reperfusion (i.e. endangered area). The ratio IS/AAR is an accurate measurement to determine infarct size within endangered myocardium and is the primary endpoint from which the efficacy of treatment is addressed. The secondary endpoint IS/LV ratio is the percentage infarcted area within the total left ventricular wall.
To determine the AAR, the LAD was ligated once again (at the level marked by the suture left in place) and 4% Evans blue dye was injected via the thoracic aorta in a retrograde fashion. Hearts were rapidly explanted, rinsed in 0.9% saline and wrapped in a clear food wrap and frozen at −20° C. for 1 hour. Hearts were then mechanically sliced into five 1 mm cross sections. Heart sections were incubated in 1% triphenyltetrazolium chloride (Sigma-Aldrich) at 37° C. for 15 minutes before placing them in formaldehyde for another 15 minutes. Viable tissue stained red and infarcted tissue appeared white. Heart sections were digitally photographed (CANON EOS 400D) under a microscope (CARL ZEISS™). IS, MR and total LV area were measured using ImageJ software (version 1.34).
All data are expressed as Mean±SD. After skewness±SD and kurtosis±SD confirmed normality, a one-way ANOVA with Bonferroni adjustment (Table 2) and a Dunnett's T test (2 sided) (Table 4). was used to test differences between groups. Kolmogorov-Smirnov test performed if abnormal distribution was suspected (i.e. when kurtosis and skewness values are twice their standard deviations). All statistical analyses were performed using SPSS version 13.0 for Windows (SPSS, Chicago, USA) and p<0.05 was considered significant.

[2] = test system: IL-1 production in LPS-stimulated human peripheral blood monocytes; details: cited from earlier work
[3] = Table 1, 30 min ischemia/24 h reperfusion, i.v. 5 min prior to reperfusion, mAb and IgG 10 mg/kg, SB239063 0.5 mg/kg, n=10
[4] = Table 2, Bonferroni, (J) group IgG isotype
[5] = Table 2, Bonferroni, (J) group PBS
[6] = Table 2, Bonferroni, (J) group exp. mAB
[7] = Table 3 (amended, saline control set), 30 min ischemia/24 h reperfusion, n=10
[8] = Table 5, Dunnett, (J) group Saline

trans-1-(4-Hydroxycyclohexyl)-4-(fluorophenyl)-5-(2-methoxypyrimidin-4-yl) imidazole [SB239063]
IS_AAR (infarct size as percentage of Area At Risk), Mean [1, 3]: 31.4000%
IS_LV (infarct size as percentage of total Left Ventricle), Mean [1, 3]: 12.0100%
IS_AAR Mean Difference (I-J) [1, 4]: .25400
IS_LV Mean Difference (I-J) [1, 4]: −.85200
IS_AAR Mean Difference (I-J) [1, 5]: −4.185
IS_LV Mean Difference (I-J) [1, 5]: −5.3
IS_AAR Mean Difference (I-J) [1, 6]: 13.51(*)
IS_LV Mean Difference (I-J) [1, 6]: 5.908(*)
IS/AAR Mean [1, 7]: 31.7250%
IS/LV Mean [1, 7]: 12.3220%
IS_AAR Mean Difference (I-J) ([1]; Table 4, Dunnett, (J) group Saline, n=10 groups): −2.776
IS_AAR Mean Difference (I-J) [1, 8]: −2.776
IS_LV Mean Difference (I-J) [1, 8]: −1.74
effect on infarct size (in words) [1]: did not reduce infarct size
effect on infarct size (in words) ([1]; listed as p38 inhibitor): no reduction of infarct size; also recorded: no difference in infarct size
difference in mean IS/LV ([1]; versus PBS treated mice, not statistically significant (FIG. 7)): −26%
pIC50 [2]: 6.92
